# Data taken from patent US8722849B2, “Polypeptides” (Novo Nordisk A/S, priority 2011, dated 2014).
# Starred links: 1 amine or outer side, 2 acyl side, 3 side chain; linkers in the order of their positions; H or OH if unused. Positions of bridges follow the written chain, without caps; N, C: chain ends. Residues, ends and D or L forms follow the SMILES beside them. *: point of attachment. C20 diacid = O=C(O)CCCCCCCCCCCCCCCCCCC(=O)*; γGlu = O=C(O)[C@H](CCC(=O)[*:2])N[*:1]
# Tests used:
# food intake = experiment: Assay (I) efficacy testing on appetite (food intake), ad libitum fed rat model; assay type: in vivo, Sprague Dawley (SD) rats
# Excerpt: In the following examples reference is made to the following Assays: • Assay (I)— Experimental protocol for efficacy testing on appetite using an ad libitum fed rat model • ASSAY (II)a—Functional assay—Human calcitonin and amylin receptor assay • ASSAY (II)b—Functional assay—Rat calcitonin and rat amylin receptor assays • ASSAY (III)—ThT fibrillation assays for the assessment of physical stability of protein formulations • ASSAY (IV)—Determination of solubility • ASSAY (V)—Determination of binding to the human amylin receptor • ASSAY (VI)—Determination of the binding to the rat amylin receptor • ASSAY (VII)—Determination of binding to the human calcitonin receptor • ASSAY (VIII)—Determination of binding to the rat calcitonin receptor • ASSAY (IX)—pK—Determination of T % in mini-pig • ASSAY (X)—pK—Determination of T % in rat ASSAY (I)—Experimental Protocol for Efficacy Testing on Appetite Using an Ad Libitum Fed Rat Model
# Sprague Dawley (SD) rats from Taconic Europe, Denmark are used for the experiments. The rats have a body weight 200-250 g at the start of experiment. The rats arrive at least 10-14 days before start of experiment to allow acclimatization to experimental settings. During this period the animals are handled at least 2 times. After arrival rats are housed individually for one week in a reversed light/dark phase (meaning that lights are off during daytime and on during nighttime) […]. Since rats are normally active and eat their major part of their daily food intake during the dark period, rats are dosed in the morning right before lights are turned off. This set-up results in the lowest data variation and highest test sensitivity. The experiment is conducted in the rats' home cages and rats have free access to food and water throughout the acclimatization period and the experiment period. Each dose of derivative is tested in a group of 5-8 rats. A vehicle group of 6-8 rats is included in each set of testing. Rats are dosed once according to body weight with a 0.01-3 mg/kg solution administered intraperitoneally (ip), orally (po) or subcutaneously (sc). The time of dosing is recorded for each group. After dosing, the rats are returned to their home cages, where they then have access to food and water. The food consumption is recorded individually continuously by on-line registration or manually every hour for 7 hours, and then after 24 h and sometimes 48 h. At the end of the experimental session, the animals are euthanised.
# The individual data are recorded in Microsoft excel sheets. Outliers are excluded after applying the Grubbs statistical evaluation test for outliers, and the result is presented graphically using the GraphPad Prism program.
# [1] = Assay (III) ThT fibrillation assay for physical stability; assay type: physicochemical; conditions: ThT fibrillation assay
# Procedure, shortened: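 Freshly prepared formulations, pH-adjusted, with 1 μM ThT; four or eight replicates incubated at 37 °C under 960 rpm orbital shaking. Fluorescence (ex 444/em 485 nm) read every 20 min; […]. Peptide concentration measured by RP-HPLC before and after the run.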
Compound,ThT pH 4.0 lag time [1],ThT pH 4.0 lag time (h) [1],"Food intake reduction 0-24 h 30 nmol/kg (%) (food intake; 0-24 h, 30 nmol/kg)","Food intake reduction 24-48 h 30 nmol/kg (%) (food intake; 24-48 h, 30 nmol/kg)",Food intake reduction 0-24 h 3 nmol/kg (%) (food intake; 0-24 h),Food intake reduction 24-48 h 3 nmol/kg (%) (food intake; 24-48 h)
"CC[C@H](C)[C@H](NC(=O)[C@@H]1CCCN1C(=O)CNC(=O)[C@H](Cc1ccccc1)NC(=O)[C@H](CC(N)=O)NC(=O)[C@H](CC(N)=O)NC(=O)[C@H](CO)NC(=O)[C@H](CO)NC(=O)[C@H](CCCNC(=N)N)NC(=O)[C@@H](NC(=O)[C@H](CC(C)C)NC(=O)[C@H](Cc1ccccc1)NC(=O)[C@H](CCC(=O)O)NC(=O)[C@H](C)NC(=O)[C@H](CC(C)C)NC(=O)[C@H](CCCNC(=N)N)NC(=O)[C@H](CCC(N)=O)NC(=O)[C@@H](NC(=O)[C@H](C)NC(=O)[C@@H]1CSSC[C@H](NC(=O)[C@H](Cc2c[nH]cn2)NC(=O)CC[C@H](NC(=O)CCCCCCCCCCCCCCCCCCC(=O)O)C(=O)O)C(=O)N[C@@H](CC(N)=O)C(=O)N[C@@H]([C@@H](C)O)C(=O)N[C@@H](C)C(=O)N[C@@H]([C@@H](C)O)C(=O)N1)[C@@H](C)O)C(C)C)C(=O)N[C@@H](CC(C)C)C(=O)N1CCC[C@H]1C(=O)N1CCC[C@H]1C(=O)N[C@H](C(=O)N[C@@H](CC(N)=O)C(=O)N[C@H](C(=O)NCC(=O)N[C@@H](CO)C(=O)N[C@@H](CC(N)=O)C(=O)N[C@H](C(=O)N[C@@H](Cc1ccc(O)cc1)C(N)=O)[C@@H](C)O)C(C)C)[C@@H](C)O [Example 15, N-alpha-[(S)-4-Carboxy-4-(19-carboxynonadecanoylamino)butyryl]-[His1,Glu14,Arg18]-pramlintide] ({C20 diacid-γGlu}-HCNTATCATQRLAEFLVRSSNNFGPILPPTNVGSNTY-NH2; disulfide 2-7 (inferred); C-terminus assumed)",–,4.7 h,–,–,56%,59%
"CC[C@H](C)[C@H](NC(=O)[C@@H]1CCCN1C(=O)CNC(=O)[C@H](Cc1ccccc1)NC(=O)[C@H](CC(N)=O)NC(=O)[C@H](CC(N)=O)NC(=O)[C@H](CO)NC(=O)[C@H](CO)NC(=O)[C@H](Cc1c[nH]cn1)NC(=O)[C@H](Cc1c[nH]cn1)NC(=O)[C@H](CC(C)C)NC(=O)[C@H](Cc1ccccc1)NC(=O)[C@H](CCC(=O)O)NC(=O)[C@H](C)NC(=O)[C@H](CC(C)C)NC(=O)[C@H](CCCNC(=N)N)NC(=O)[C@H](CCC(N)=O)NC(=O)[C@@H](NC(=O)[C@H](C)NC(=O)[C@@H]1CSSC[C@H](NC(=O)CC[C@H](NC(=O)CCCCCCCCCCCCCCCCCCC(=O)O)C(=O)O)C(=O)N[C@@H](CC(N)=O)C(=O)N[C@@H]([C@@H](C)O)C(=O)N[C@@H](C)C(=O)N[C@@H]([C@@H](C)O)C(=O)N1)[C@@H](C)O)C(=O)N[C@@H](CC(C)C)C(=O)N1CCC[C@H]1C(=O)N1CCC[C@H]1C(=O)N[C@H](C(=O)N[C@@H](CC(N)=O)C(=O)N[C@H](C(=O)NCC(=O)N[C@@H](CO)C(=O)N[C@@H](CC(N)=O)C(=O)N[C@H](C(=O)N[C@@H](Cc1ccc(O)cc1)C(N)=O)[C@@H](C)O)C(C)C)[C@@H](C)O [Example 28, N-alpha-[(S)-4-Carboxy-4-(19-carboxynonadecanoylamino)butyryl]-[des1,Glu14,His17]-pramlintide] ({C20 diacid-γGlu}-CNTATCATQRLAEFLHHSSNNFGPILPPTNVGSNTY-NH2; disulfide 1-6 (inferred))",–,9.3 h,–,–,39%,36%
"CC[C@H](C)[C@H](NC(=O)[C@@H]1CCCN1C(=O)CNC(=O)[C@H](Cc1ccccc1)NC(=O)[C@H](CC(N)=O)NC(=O)[C@H](CC(N)=O)NC(=O)[C@H](CO)NC(=O)[C@H](CO)NC(=O)[C@H](Cc1c[nH]cn1)NC(=O)[C@H](Cc1c[nH]cn1)NC(=O)[C@H](CC(C)C)NC(=O)[C@H](Cc1ccccc1)NC(=O)[C@H](CCC(=O)O)NC(=O)[C@H](C)NC(=O)[C@H](CC(C)C)NC(=O)[C@H](CCCNC(=N)N)NC(=O)[C@H](CCC(N)=O)NC(=O)[C@@H](NC(=O)[C@H](C)NC(=O)[C@@H]1CSSC[C@H](NC(=O)[C@H](CCC(=O)O)NC(=O)CC[C@H](NC(=O)CCCCCCCCCCCCCCCCCCC(=O)O)C(=O)O)C(=O)N[C@@H](CC(N)=O)C(=O)N[C@@H]([C@@H](C)O)C(=O)N[C@@H](C)C(=O)N[C@@H]([C@@H](C)O)C(=O)N1)[C@@H](C)O)C(=O)N[C@@H](CC(C)C)C(=O)N1CCC[C@H]1C(=O)N1CCC[C@H]1C(=O)N[C@H](C(=O)N[C@@H](CC(N)=O)C(=O)N[C@H](C(=O)NCC(=O)N[C@@H](CO)C(=O)N[C@@H](CC(N)=O)C(=O)N[C@H](C(=O)N[C@@H](Cc1ccc(O)cc1)C(N)=O)[C@@H](C)O)C(C)C)[C@@H](C)O [Example 29, N-alpha-[(S)-4-Carboxy-4-(19-carboxynonadecanoylamino)butyryl]-[Glu1,Glu14,His17]-pramlintide] ({C20 diacid-γGlu}-ECNTATCATQRLAEFLHHSSNNFGPILPPTNVGSNTY-NH2; disulfide 2-7 (inferred))",–,3 h,–,–,15%,5%

# More lines, main results first:
ThT pH 4.0 lag time [1],ThT pH 4.0 lag time (h) [1],Compound,"Food intake reduction 0-24 h 30 nmol/kg (%) (food intake; 0-24 h, 30 nmol/kg)","Food intake reduction 24-48 h 30 nmol/kg (%) (food intake; 24-48 h, 30 nmol/kg)",Food intake reduction 0-24 h 3 nmol/kg (%) (food intake; 0-24 h),Food intake reduction 24-48 h 3 nmol/kg (%) (food intake; 24-48 h)
>45 h,>45 h,"CC[C@H](C)[C@H](NC(=O)[C@@H]1CCCN1C(=O)CNC(=O)[C@H](Cc1ccccc1)NC(=O)[C@H](CC(N)=O)NC(=O)[C@H](CC(N)=O)NC(=O)[C@H](CO)NC(=O)[C@H](CO)NC(=O)[C@H](Cc1c[nH]cn1)NC(=O)[C@H](CCCNC(=N)N)NC(=O)[C@H](CC(C)C)NC(=O)[C@H](Cc1ccccc1)NC(=O)[C@H](CCC(=O)O)NC(=O)[C@H](C)NC(=O)[C@H](CC(C)C)NC(=O)[C@H](CCCNC(=N)N)NC(=O)[C@H](CCC(N)=O)NC(=O)[C@@H](NC(=O)[C@H](C)NC(=O)[C@@H]1CSSC[C@H](NC(=O)[C@H](Cc2c[nH]cn2)NC(=O)[C@H](Cc2c[nH]cn2)NC(=O)[C@H](Cc2c[nH]cn2)NC(=O)CC[C@H](NC(=O)CCCCCCCCCCCCCCCCCCC(=O)O)C(=O)O)C(=O)N[C@@H](CC(N)=O)C(=O)N[C@@H]([C@@H](C)O)C(=O)N[C@@H](C)C(=O)N[C@@H]([C@@H](C)O)C(=O)N1)[C@@H](C)O)C(=O)N[C@@H](CC(C)C)C(=O)N1CCC[C@H]1C(=O)N1CCC[C@H]1C(=O)N[C@H](C(=O)N[C@@H](CC(N)=O)C(=O)N[C@H](C(=O)NCC(=O)N[C@@H](CO)C(=O)N[C@@H](CC(N)=O)C(=O)N[C@H](C(=O)N[C@@H](Cc1ccc(O)cc1)C(N)=O)[C@@H](C)O)C(C)C)[C@@H](C)O [Example 12, N-alpha-[(S)-4-Carboxy-4-(19-carboxynonadecanoylamino)butyryl]-His-His-[His1,Glu14,Arg17]-pramlintide] ({C20 diacid-γGlu}-HHHCNTATCATQRLAEFLRHSSNNFGPILPPTNVGSNTY-NH2; disulfide 4-9 (inferred); C-terminus assumed)",70%,45%,–,–
30.3 h,30.3 h,"CC[C@H](C)[C@H](NC(=O)[C@@H]1CCCN1C(=O)CNC(=O)[C@H](Cc1ccccc1)NC(=O)[C@H](CC(N)=O)NC(=O)[C@H](CC(N)=O)NC(=O)[C@H](CO)NC(=O)[C@H](CO)NC(=O)[C@H](Cc1c[nH]cn1)NC(=O)[C@H](Cc1c[nH]cn1)NC(=O)[C@H](CC(C)C)NC(=O)[C@H](Cc1ccccc1)NC(=O)[C@H](CCC(=O)O)NC(=O)[C@H](C)NC(=O)[C@H](CC(C)C)NC(=O)[C@H](CCCNC(=N)N)NC(=O)[C@H](CCC(N)=O)NC(=O)[C@@H](NC(=O)[C@H](C)NC(=O)[C@@H]1CSSC[C@H](NC(=O)[C@H](Cc2c[nH]cn2)NC(=O)[C@H](Cc2c[nH]cn2)NC(=O)CC[C@H](NC(=O)CCCCCCCCCCCCCCCCCCC(=O)O)C(=O)O)C(=O)N[C@@H](CC(N)=O)C(=O)N[C@@H]([C@@H](C)O)C(=O)N[C@@H](C)C(=O)N[C@@H]([C@@H](C)O)C(=O)N1)[C@@H](C)O)C(=O)N[C@@H](CC(C)C)C(=O)N1CCC[C@H]1C(=O)N1CCC[C@H]1C(=O)N[C@H](C(=O)N[C@@H](CC(N)=O)C(=O)N[C@H](C(=O)NCC(=O)N[C@@H](CO)C(=O)N[C@@H](CC(N)=O)C(=O)N[C@H](C(=O)N[C@@H](Cc1ccc(O)cc1)C(N)=O)[C@@H](C)O)C(C)C)[C@@H](C)O [Example 17, N-alpha-[(S)-4-Carboxy-4-(19-carboxynonadecanoylamino)butyryl]-His-[His1,Glu14,His17]-pramlintide] ({C20 diacid-γGlu}-HHCNTATCATQRLAEFLHHSSNNFGPILPPTNVGSNTY-NH2; disulfide 3-8 (inferred); C-terminus assumed)",–,–,40%,22%
